For 34 compounds, inhibition and viability results are on record in ChEMBL document CHEMBL6078668, “Synthesis and biological evaluation of lappaconitine analogues as potential anti-neuroinflammatory agents by side chain modification and scaffold hopping strategy” (Bioorg Med Chem, 2025).

In general, inhibition refers to how much of the control response was suppressed.

One data set relates to BV-2. In words: Anti-neuroinflammatory activity against LPS-stimulated C57BL/6 mouse BV-2 cells assessed as inhibition of NO release at 30 uM preincubated with compound for 4 hrs followed by LPS addition and measured after 24 hrs by Griess reagent based assay relative to control. In kind it is functional. Particulars: C57BL/6, BV-2, time 28 hrs. In general terms: Griess reagent forms a coloured azo dye with nitrite.

Data set [1] can be described thus: Cytotoxicity against C57BL/6 mouse BV-2 cells assessed as survival rate at 30 uM incubated for 24 hrs by MTT assay relative to control. In kind it is toxicity, cell-based. The note with it: read-out: Survival. (In general: Tetrazolium assays rely on reduction of a dye to a coloured formazan, in cell work by metabolically active cells.)

SMILES strings stand for the structures.

As to `CCN1C[C@]2(OC(=O)c3ccccc3NC(=O)S(=O)(=O)c3ccc(C#N)cc3)CC[C@H](OC)[C@]34C1[C@@H](C[C@H]23)[C@@]1(O)C[C@H](OC)[C@H]2C[C@@H]4[C@]1(O)[C@H]2OC`, in the data set on BV-2, the inhibition at 30 µM turned out to be 38.8%. Further, the viability at 24 h, 30 µM in data set [1] worked out at 103%.

With `CCN1C[C@]2(OC(=O)c3ccccc3NC(=O)S(=O)(=O)c3ccccc3OC)CC[C@H](OC)[C@]34C1[C@@H](C[C@H]23)[C@@]1(O)C[C@H](OC)[C@H]2C[C@@H]4[C@]1(O)[C@H]2OC`, in the data set with BV-2, the inhibition at 30 µM worked out at 15.2%. Moreover, the viability at 24 h, 30 µM in data set [1] was determined as 103%.

`CCN1C[C@]2(OC(=O)c3ccccc3NC(=O)S(=O)(=O)c3cc(OC)ccc3OC)CC[C@H](OC)[C@]34C1[C@@H](C[C@H]23)[C@@]1(O)C[C@H](OC)[C@H]2C[C@@H]4[C@]1(O)[C@H]2OC`: the inhibition at 30 µM in the data set on BV-2 turned out to be 26.3%. Also, the viability at 24 h, 30 µM in data set [1] was 102%.

Consider `CCN1C[C@]2(OC(=O)c3ccccc3NC(=O)S(=O)(=O)c3cccc4ccccc34)CC[C@H](OC)[C@]34C1[C@@H](C[C@H]23)[C@@]1(O)C[C@H](OC)[C@H]2C[C@@H]4[C@]1(O)[C@H]2OC`, for which the inhibition at 30 µM in the data set on BV-2 came out at 30.5%. In addition, the viability at 24 h, 30 µM in data set [1] is 105%.

On to `CCN1C[C@]2(OC(=O)c3ccccc3NC(=O)S(=O)(=O)c3ccc(-c4ccccc4)cc3)CC[C@H](OC)[C@]34C1[C@@H](C[C@H]23)[C@@]1(O)C[C@H](OC)[C@H]2C[C@@H]4[C@]1(O)[C@H]2OC`, for which, in the data set with BV-2, the inhibition at 30 µM came out at 41.9%. Also, the viability at 24 h, 30 µM in data set [1] worked out at 102%.

For the compound `CCN1C[C@]2(OC(=O)c3ccccc3NC(=O)S(=O)(=O)c3ccc4ccccc4c3)CC[C@H](OC)[C@]34C1[C@@H](C[C@H]23)[C@@]1(O)C[C@H](OC)[C@H]2C[C@@H]4[C@]1(O)[C@H]2OC`, in the data set on BV-2, the inhibition at 30 µM turned out to be 53.1%. Besides, the viability at 24 h, 30 µM in data set [1] came to 100%.

As to `CCN1C[C@]2(OC(=O)c3ccccc3NC(=O)S(=O)(=O)c3ccc(Cl)cc3F)CC[C@H](OC)[C@]34C1[C@@H](C[C@H]23)[C@@]1(O)C[C@H](OC)[C@H]2C[C@@H]4[C@]1(O)[C@H]2OC`, in the data set with BV-2, the inhibition at 30 µM came to 14.9%. Besides, the viability at 24 h, 30 µM in data set [1] amounted to 99.8%.

Consider `C=C(C)C(=O)Nc1ccccc1C(=O)O[C@@]12CC[C@H](OC)[C@]34C([C@@H](C[C@H]13)[C@@]1(O)C[C@H](OC)[C@H]3C[C@@H]4[C@]1(O)[C@H]3OC)N(CC)C2`, for which, in the data set with BV-2, the inhibition at 30 µM turned out to be 12.9%. The viability at 24 h, 30 µM in data set [1] is 94.2%.

As for `CCN1C[C@]2(OC(=O)c3ccccc3NC(=O)S(=O)(=O)c3cccc(C#N)c3)CC[C@H](OC)[C@]34C1[C@@H](C[C@H]23)[C@@]1(O)C[C@H](OC)[C@H]2C[C@@H]4[C@]1(O)[C@H]2OC`, the inhibition at 30 µM with BV-2 came out at 7.4%. Also, the viability at 24 h, 30 µM in data set [1] came to 108%.

In the case of `CCN1C[C@]2(OC(=O)c3ccccc3NC(=O)S(=O)(=O)/C=C/c3ccccc3)CC[C@H](OC)[C@]34C1[C@@H](C[C@H]23)[C@@]1(O)C[C@H](OC)[C@H]2C[C@@H]4[C@]1(O)[C@H]2OC`, the inhibition at 30 µM with BV-2 stood at 29.4%. The viability at 24 h, 30 µM in data set [1] is 108%.

As to `CCN1C[C@]2(OC(=O)c3ccccc3NC(=O)c3ccc(C#N)cc3)CC[C@H](OC)[C@]34C1[C@@H](C[C@H]23)[C@@]1(O)C[C@H](OC)[C@H]2C[C@@H]4[C@]1(O)[C@H]2OC`, in the data set with BV-2, the inhibition at 30 µM came to 6.6%. Moreover, the viability at 24 h, 30 µM in data set [1] came to 99.5%.

Take `CCN1C[C@]2(OC(=O)c3ccccc3NC(=O)c3ccc(OC)cc3)CC[C@H](OC)[C@]34C1[C@@H](C[C@H]23)[C@@]1(O)C[C@H](OC)[C@H]2C[C@@H]4[C@]1(O)[C@H]2OC`: the inhibition at 30 µM in the data set with BV-2 was 45.2%. Moreover, the viability at 24 h, 30 µM in data set [1] was 100%.

Regarding `CCN1C[C@]2(OC(=O)c3ccccc3NC(=O)c3cccc(Br)c3)CC[C@H](OC)[C@]34C1[C@@H](C[C@H]23)[C@@]1(O)C[C@H](OC)[C@H]2C[C@@H]4[C@]1(O)[C@H]2OC`, in the data set with BV-2, the inhibition at 30 µM was determined as 44.1%. Further, the viability at 24 h, 30 µM in data set [1] is 100%.

With `CCc1ccc(C(=O)Nc2ccccc2C(=O)O)cc1`, the inhibition at 30 µM in the data set on BV-2 was 11.9%. Also, in data set [1], the viability at 24 h, 30 µM came out at 101%.

Regarding `O=C(O)c1ccccc1NS(=O)(=O)c1ccc(Br)s1`, the inhibition at 30 µM in the data set on BV-2 was found to be 18.4%. Further, in data set [1], the viability at 24 h, 30 µM came out at 96.5%.

As for `CCCCC(CC)C(=O)Nc1ccccc1C(=O)O[C@@]12CC[C@H](OC)[C@]34C([C@@H](C[C@H]13)[C@@]1(O)C[C@H](OC)[C@H]3C[C@@H]4[C@]1(O)[C@H]3OC)N(CC)C2` (stereo partly drawn), the inhibition at 30 µM in the data set on BV-2 worked out at 38.2%. Moreover, the viability at 24 h, 30 µM in data set [1] came out at 95.9%.

For the compound `CCN1C[C@]2(OC(=O)c3ccccc3NC(=O)S(=O)(=O)c3ccc(F)cc3C)CC[C@H](OC)[C@]34C1[C@@H](C[C@H]23)[C@@]1(O)C[C@H](OC)[C@H]2C[C@@H]4[C@]1(O)[C@H]2OC`, in the data set with BV-2, the inhibition at 30 µM amounted to 32.2%. Moreover, in data set [1], the viability at 24 h, 30 µM came to 92.7%.

With `COC(=O)c1ccccc1NC(=O)c1ccc(Cl)s1`, in the data set on BV-2, the inhibition at 30 µM was found to be 48.6%. Moreover, the viability at 24 h, 30 µM in data set [1] worked out at 93.5%.

On to `CCN1C[C@]2(OC(=O)c3ccccc3NC(=O)c3cccc(C#N)c3)CC[C@H](OC)[C@]34C1[C@@H](C[C@H]23)[C@@]1(O)C[C@H](OC)[C@H]2C[C@@H]4[C@]1(O)[C@H]2OC`, for which the inhibition at 30 µM in the data set on BV-2 turned out to be 12.8%. The viability at 24 h, 30 µM in data set [1] was found to be 101%.

For `CCN1C[C@]2(OC(=O)c3ccccc3NC(=O)S(=O)(=O)Cc3ccc([N+](=O)[O-])cc3)CC[C@H](OC)[C@]34C1[C@@H](C[C@H]23)[C@@]1(O)C[C@H](OC)[C@H]2C[C@@H]4[C@]1(O)[C@H]2OC`, the inhibition at 30 µM in the data set with BV-2 worked out at 22.7%. Besides, the viability at 24 h, 30 µM in data set [1] came out at 98.9%.

With `COC(=O)c1ccccc1NS(=O)(=O)c1ccc(Br)s1`, in the data set with BV-2, the inhibition at 30 µM is 43.8%. Also, the viability at 24 h, 30 µM in data set [1] stood at 99.1%.

On to `CCN1C[C@]2(OC(=O)c3ccccc3NC(=O)c3cccc(F)c3)CC[C@H](OC)[C@]34C1[C@@H](C[C@H]23)[C@@]1(O)C[C@H](OC)[C@H]2C[C@@H]4[C@]1(O)[C@H]2OC`, for which the inhibition at 30 µM with BV-2 is 11%. Moreover, the viability at 24 h, 30 µM in data set [1] turned out to be 107%.

In the case of `CCN1C[C@]2(OC(=O)c3ccccc3NC(=O)C3CC3)CC[C@H](OC)[C@]34C1[C@@H](C[C@H]23)[C@@]1(O)C[C@H](OC)[C@H]2C[C@@H]4[C@]1(O)[C@H]2OC`, the inhibition at 30 µM in the data set on BV-2 is 27.7%. In addition, the viability at 24 h, 30 µM in data set [1] is 104%.

Regarding `CCN1C[C@]2(OC(=O)c3ccccc3NC(=O)S(=O)(=O)c3ccc(OC)cc3)CC[C@H](OC)[C@]34C1[C@@H](C[C@H]23)[C@@]1(O)C[C@H](OC)[C@H]2C[C@@H]4[C@]1(O)[C@H]2OC`, the inhibition at 30 µM in the data set on BV-2 amounted to 10.8%. Also, the viability at 24 h, 30 µM in data set [1] turned out to be 92.4%.

Turning to `CCN1C[C@]2(OC(=O)c3ccccc3NC(=O)c3ccc(C)cc3C)CC[C@H](OC)[C@]34C1[C@@H](C[C@H]23)[C@@]1(O)C[C@H](OC)[C@H]2C[C@@H]4[C@]1(O)[C@H]2OC`, in the data set on BV-2, the inhibition at 30 µM came out at 16%. For the same compound, the viability at 24 h, 30 µM in data set [1] stood at 104%.

Consider `CCN1C[C@]2(OC(=O)c3ccccc3NC(=O)S(C)(=O)=O)CC[C@H](OC)[C@]34C1[C@@H](C[C@H]23)[C@@]1(O)C[C@H](OC)[C@H]2C[C@@H]4[C@]1(O)[C@H]2OC`, for which the inhibition at 30 µM with BV-2 is 5.1%. For the same compound, the viability at 24 h, 30 µM in data set [1] came to 102%.

As to `CCN1C[C@]2(OC(=O)c3ccccc3NC(=O)S(=O)(=O)c3csc4ccccc34)CC[C@H](OC)[C@]34C1[C@@H](C[C@H]23)[C@@]1(O)C[C@H](OC)[C@H]2C[C@@H]4[C@]1(O)[C@H]2OC`, the inhibition at 30 µM with BV-2 came to 30.7%. Further, in data set [1], the viability at 24 h, 30 µM was determined as 100%.

On to `CCN1C[C@]2(OC(=O)c3ccccc3NC(=O)S(=O)(=O)c3cc(Cl)ccc3OC)CC[C@H](OC)[C@]34C1[C@@H](C[C@H]23)[C@@]1(O)C[C@H](OC)[C@H]2C[C@@H]4[C@]1(O)[C@H]2OC`, for which the inhibition at 30 µM in the data set with BV-2 stood at 6%. Further, the viability at 24 h, 30 µM in data set [1] is 94.9%.

As for `CCN1C[C@]2(O)CC[C@H](OC)[C@]34C1[C@@H](C[C@H]23)[C@@]1(O)C[C@H](OC)[C@H]2C[C@@H]4[C@]1(O)[C@H]2OC`, in the data set on BV-2, the inhibition at 30 µM is 8.8%. Moreover, the viability at 24 h, 30 µM in data set [1] worked out at 97.4%.

As for `CCN1C[C@]2(OC(=O)c3ccccc3NC(=O)c3ccccc3N(C)C)CC[C@H](OC)[C@]34C1[C@@H](C[C@H]23)[C@@]1(O)C[C@H](OC)[C@H]2C[C@@H]4[C@]1(O)[C@H]2OC`, the inhibition at 30 µM with BV-2 amounted to 34.7%. In data set [1], the viability at 24 h, 30 µM is 101%.

Turning to `CCN1C[C@]2(OC(=O)c3ccccc3NC(=O)S(=O)(=O)c3cccc(OC)c3)CC[C@H](OC)[C@]34C1[C@@H](C[C@H]23)[C@@]1(O)C[C@H](OC)[C@H]2C[C@@H]4[C@]1(O)[C@H]2OC`, the inhibition at 30 µM with BV-2 is 23.5%. Further, in data set [1], the viability at 24 h, 30 µM is 102%.

For the compound `CCN1C[C@]2(OC(=O)c3ccccc3NC(=O)S(=O)(=O)c3ccccc3[N+](=O)[O-])CC[C@H](OC)[C@]34C1[C@@H](C[C@H]23)[C@@]1(O)C[C@H](OC)[C@H]2C[C@@H]4[C@]1(O)[C@H]2OC`, in the data set on BV-2, the inhibition at 30 µM is 20.5%. Besides, the viability at 24 h, 30 µM in data set [1] worked out at 104%.

On to `CCN1C[C@]2(OC(=O)c3ccccc3NC(=O)S(=O)(=O)c3ccccc3C#N)CC[C@H](OC)[C@]34C1[C@@H](C[C@H]23)[C@@]1(O)C[C@H](OC)[C@H]2C[C@@H]4[C@]1(O)[C@H]2OC`, for which the inhibition at 30 µM in the data set with BV-2 stood at 27.5%. For the same compound, in data set [1], the viability at 24 h, 30 µM worked out at 101%.

As for `CCN1C[C@]2(OC(=O)c3ccccc3NC(=O)S(=O)(=O)c3ccc(OC)cc3OC)CC[C@H](OC)[C@]34C1[C@@H](C[C@H]23)[C@@]1(O)C[C@H](OC)[C@H]2C[C@@H]4[C@]1(O)[C@H]2OC`, the inhibition at 30 µM with BV-2 was 20.9%. Besides, the viability at 24 h, 30 µM in data set [1] was found to be 99.7%.
